The text below walks through data of PMC12040169 (PLOS Biology, 2025).

The nature of the data set: in vitro. As to conditions: human, hela cells, % viability.

On to `CS(=O)(=O)N(Cc1ccc(Cl)cc1)c1ccc(C(=O)N2CCC(C(N)=O)CC2)cc1` [CBK265327], for which the viability at 28.5 h, 10 µM turned out to be 89.7%.

For `O=S1(=O)C=C(SCCN2CCCCC2)c2ccccc21` [CBK265328], the viability at 28.5 h, 10 µM is 92.6%.

In the case of `CS(=O)(=O)N(CC(=O)N1CCN(Cc2ccc3c(c2)OCO3)CC1)c1cccc(C(F)(F)F)c1` [CBK265329], the viability at 28.5 h, 10 µM stood at 77.7%.

For the compound `O=C(NC(/C=C/c1ccccc1)c1cc([N+](=O)[O-])c2cccnc2c1O)C1CCCCC1` (centres unmarked) [CBK265333], the viability at 28.5 h, 10 µM turned out to be 93%.

Consider `Cc1nc(Nc2c(Cl)cc(S(N)(=O)=O)cc2Cl)sc1C(=O)Nc1ccccc1` [CBK265335], for which the viability at 28.5 h, 10 µM came to 106%.

Turning to `Sc1nnc(-c2ccncc2)n1/N=C/c1cccnc1` [CBK265336], the viability at 28.5 h, 10 µM turned out to be 96.6%.

As for `Cc1ccc(S(=O)(=O)N(CC(=O)NCC2CCCO2)c2cccc(C)c2C)cc1` (centres unmarked) [CBK265339], the viability at 28.5 h, 10 µM came out at 72.7%.

In the case of `O=C(NCCSCc1c(F)cccc1Cl)Nc1ccccc1` [CBK265340], the viability at 28.5 h, 10 µM was 90.2%.

Take `COc1ccc(CCNC(=O)CC2Sc3ccc(C(F)(F)F)cc3NC2=O)cc1OC` (centres unmarked) [CBK265341]: the viability at 28.5 h, 10 µM came to 91.7%.

Turning to `O=C(CN(Cc1ccc(F)cc1)S(=O)(=O)c1ccc(Cl)cc1)Nc1ccc2c(c1)OCCO2` [CBK265346], the viability at 28.5 h, 10 µM was determined as 90.2%.

Regarding `CN(C)CCNc1ncnc2sc3c(c12)CCC3` [CBK265347], the viability at 28.5 h, 10 µM is 69.5%.

Turning to `COc1cc(/C=C2\NC(=O)N(Cc3ccc([N+](=O)[O-])cc3)C2=O)ccc1OC(C)C(=O)O` (centres unmarked) [CBK265348], the viability at 28.5 h, 10 µM turned out to be 107%.

For the compound `O=C(O)CC(NC(=O)OCc1ccccc1)c1ccccc1` (centres unmarked) [CBK265351], the viability at 28.5 h, 10 µM was 107%.

On to `CC(C)(C)c1ccc(OCC(=O)Nc2ccc(S(=O)(=O)N3CCc4ccccc43)cc2)cc1` [CBK265352], for which the viability at 28.5 h, 10 µM was determined as 100%.

With `O=C(CN(c1cccc(Cl)c1)S(=O)(=O)c1ccc(Cl)cc1)NCc1ccco1` [CBK265356], the viability at 28.5 h, 10 µM was determined as 106%.

Consider `CC(=O)Nc1ccc(S(=O)(=O)Oc2ccc(/C=C3\SC(=N)NC3=O)cc2Cl)cc1` [CBK265357], for which the viability at 28.5 h, 10 µM is 100%.

As for `c1ccc(Cn2c(-c3ccccc3)c(-c3ccccc3)c3c2ncn2nc(-c4cccnc4)nc32)cc1` [CBK265359], the viability at 28.5 h, 10 µM was found to be 109%.

Consider `Sc1nnc(COc2ccccc2)n1/N=C/c1ccncc1` [CBK265360], for which the viability at 28.5 h, 10 µM is 100%.

Take `Cc1ccc2nc(-c3ccc(N4C(=O)CC(N5CCN(CCOCCO)CC5)C4=O)cc3)sc2c1` (centres unmarked) [CBK265362]: the viability at 28.5 h, 10 µM came to 86.1%.

As for `O=C(CN1CCN(CCN2C(=O)c3cccc4cccc(c34)C2=O)CC1)c1ccc(Cl)cc1` [CBK265363], the viability at 28.5 h, 10 µM came out at 78.1%.

As to `COC(=O)Nc1ccc(S(=O)(=O)N2CCCC(C(=O)O)C2)cc1` (centres unmarked) [CBK265364], the viability at 28.5 h, 10 µM is 98.5%.

On to `COc1cccc(NC(=O)CN(c2ccccc2)S(=O)(=O)c2ccc(Cl)cc2)c1` [CBK265366], for which the viability at 28.5 h, 10 µM is 102%.

On to `Oc1ccc(Br)cc1C(c1c(O)nc(S)nc1O)c1c(O)nc(S)nc1O` [CBK265367], for which, under “bulk resorufin, single well”, the viability at 28.5 h, 10 µM is 103%.

`COc1ccc(CCN2C(=O)NC(=O)/C(=C\c3c(C)[nH]c4ccccc34)C2=O)cc1OC` [CBK265368]: for the setting “bulk resorufin, single well”, the viability at 28.5 h, 10 µM was determined as 81.6%.

For `CSc1nc(O)c(C(c2cccc([N+](=O)[O-])c2)c2c(O)nc(SC)nc2O)c(O)n1` [CBK265370], the viability at 28.5 h, 10 µM is 80.5%.

With `Cc1cc(NS(=O)(=O)c2ccc(NC(=O)c3ccc(Br)cc3)cc2)no1` [CBK265371], the viability at 28.5 h, 10 µM was determined as 95.6%.

On to `COc1ccc(CCNC(=O)/C=C/C(=O)O)cc1OC` [CBK265373], for which the viability at 28.5 h, 10 µM was 103%.

In the case of `c1ccc(-c2c(-c3ccccc3)n(Cc3ccco3)c3ncn4nc(-c5cccnc5)nc4c23)cc1` [CBK265374], the viability at 28.5 h, 10 µM came out at 100%.

Regarding `O=C(O)c1ccc(N(Cc2ccccc2)S(=O)(=O)c2ccccc2)cc1` [CBK265375N], the viability at 28.5 h, 10 µM came out at 92.8%.

As to `O=C(O)C(Cc1c[nH]c2ccccc12)N1C(=O)C2C3c4ccccc4C(c4ccccc43)C2C1=O` (centres unmarked) [CBK265377], the viability at 28.5 h, 10 µM turned out to be 91.4%.

For `Cc1cc(C)n2c(SCC(=O)c3ccccc3)nnc2n1` [CBK265378], the viability at 28.5 h, 10 µM stood at 84.3%.

For `O=C(NCCN1CCOCC1)c1cc(-c2ccc(Cl)cc2Cl)nc2ccccc12` [CBK265379], the viability at 28.5 h, 10 µM was 113%.

Regarding `NC(=O)c1c(NC(=O)COc2ccc3ccccc3c2)sc2c1CCCCC2` [CBK265380], the viability at 28.5 h, 10 µM is 112%.

For the compound `CCC(=O)N(Cc1cc2cc(C)ccc2nc1O)c1ccc(C)c(C)c1` [CBK265381], the viability at 28.5 h, 10 µM is 107%.

Consider `CC(NC(=O)C1C2C=CC(C2)C1C(=O)O)c1ccccc1` (centres unmarked) [CBK265384], for which the viability at 28.5 h, 10 µM was found to be 109%.

With `O=C1NC(=O)N(c2ccc(O)cc2)C(=O)/C1=C/c1cc(Cl)c(OCc2ccccc2)c(Cl)c1` [CBK265385], for the setting “bulk resorufin, single well”, the viability at 28.5 h, 10 µM is 78.1%.

On to `Cc1c(-c2ccc(Cl)cc2Cl)nc2ccccc2c1C(=O)NCc1ccc(S(N)(=O)=O)cc1` [CBK265387], for which the viability at 28.5 h, 10 µM worked out at 101%.

With `O=C(O)c1cc(-c2cc(Cl)ccc2Cl)nc2ccccc12` [CBK265391], the viability at 28.5 h, 10 µM was 96.1%.

On to `CC(Oc1ccc(Cl)cc1Cl)C(=O)Nc1sc2c(c1C(N)=O)CCCCCC2` (centres unmarked) [CBK265394], for which the viability at 28.5 h, 10 µM was 85.8%.

`CC(=O)Nc1ccc(NC(=O)CCC(=O)O)cc1C` [CBK265395]: the viability at 28.5 h, 10 µM came out at 95.3%.

On to `CCOC(=O)c1ccc(N2C(=O)CC(N3CCN(c4cccc(OC)c4)CC3)C2=O)cc1` (centres unmarked) [CBK265396], for which the viability at 28.5 h, 10 µM came out at 101%.

Turning to `CC1Cc2ccccc2N1C(=O)CSc1nnc2sc3ccccc3n12` (centres unmarked) [CBK265398], the viability at 28.5 h, 10 µM stood at 94%.

`COC(=O)c1cc(NC(=O)c2cc(-c3ccc(C)o3)nc3ccccc23)cc(C(=O)OC)c1` [CBK265400]: the viability at 28.5 h, 10 µM is 86.3%.

Turning to `Cc1cc(NC(=O)C(=O)NCCN2CCN(S(C)(=O)=O)CC2)ccc1Br` [CBK265401], the viability at 28.5 h, 10 µM worked out at 85.4%.

`Cc1ccc(-c2cc(C(=O)NCc3cccnc3)c3ccccc3n2)cc1C` [CBK265402]: the viability at 28.5 h, 10 µM was 97.5%.

Take `O=C(O)C1C2C=CC(C2)C1C(=O)NCc1ccncc1` (centres unmarked) [CBK265403]: the viability at 28.5 h, 10 µM amounted to 102%.

Turning to `CCCCC(CC)CN1CNC(=S)NC1` (centres unmarked) [CBK265404], the viability at 28.5 h, 10 µM stood at 105%.

With `COC(=O)c1ccc(N2C(=O)NC(=O)/C(=C\c3ccc(OCC(=O)O)cc3)C2=O)cc1` [CBK265407], the viability at 28.5 h, 10 µM (bulk resorufin, single well) was determined as 85.2%.

`O=c1cc2oc3cc(O)c(O)cc3c(-c3ccc(OCc4cccc([N+](=O)[O-])c4)cc3)c-2cc1O` [CBK265408]: the viability at 28.5 h, 10 µM is 75.3%.

On to `O=C(CCc1ccccc1)Nc1cccc(N2C(=O)C3C4c5ccccc5C(c5ccccc54)C3C2=O)c1` (centres unmarked) [CBK265409], for which the viability at 28.5 h, 10 µM came out at 91.1%.

As for `O=C(c1ccccc1)C(Sc1nnc2sc3ccccc3n12)c1ccccc1` (centres unmarked) [CBK265416], the viability at 28.5 h, 10 µM is 84.2%.

In the case of `COc1cc(/C=C2\C(=O)NC(=O)N(c3ccc([N+](=O)[O-])cc3)C2=O)ccc1OCC(=O)O` [CBK265418], the viability at 28.5 h, 10 µM (bulk resorufin, single well) amounted to 100%.

As to `O=C(O)COc1ccccc1/C=C1\C(=O)NC(=O)N(c2ccc(OCc3ccccc3)cc2)C1=O` [CBK265419], the viability at 28.5 h, 10 µM (bulk resorufin, single well) was found to be 114%.
